ChEMBL document CHEMBL5523684, “Development of a tetrahydroindazolone-based HDAC6 inhibitor with in-vivo anti-arthritic activity” (Bioorg Med Chem, 2024)
Each block holds one molecule with its values, some of them ahead of it. Activity calls are given as the source filed them. No cut-off for these calls is given here.

How the values were obtained:
[1] = target: T1, Protein deacetylase HDAC6 (Homo sapiens, UniProt Q9UBN7); assay: Inhibition of human recombinant HDAC6 using fluorescent peptide p53 (379 to 382 residues) RHKK(Ac) as substrate by fluorescence based analysis
T1 sequence (Q9UBN7 whole entry): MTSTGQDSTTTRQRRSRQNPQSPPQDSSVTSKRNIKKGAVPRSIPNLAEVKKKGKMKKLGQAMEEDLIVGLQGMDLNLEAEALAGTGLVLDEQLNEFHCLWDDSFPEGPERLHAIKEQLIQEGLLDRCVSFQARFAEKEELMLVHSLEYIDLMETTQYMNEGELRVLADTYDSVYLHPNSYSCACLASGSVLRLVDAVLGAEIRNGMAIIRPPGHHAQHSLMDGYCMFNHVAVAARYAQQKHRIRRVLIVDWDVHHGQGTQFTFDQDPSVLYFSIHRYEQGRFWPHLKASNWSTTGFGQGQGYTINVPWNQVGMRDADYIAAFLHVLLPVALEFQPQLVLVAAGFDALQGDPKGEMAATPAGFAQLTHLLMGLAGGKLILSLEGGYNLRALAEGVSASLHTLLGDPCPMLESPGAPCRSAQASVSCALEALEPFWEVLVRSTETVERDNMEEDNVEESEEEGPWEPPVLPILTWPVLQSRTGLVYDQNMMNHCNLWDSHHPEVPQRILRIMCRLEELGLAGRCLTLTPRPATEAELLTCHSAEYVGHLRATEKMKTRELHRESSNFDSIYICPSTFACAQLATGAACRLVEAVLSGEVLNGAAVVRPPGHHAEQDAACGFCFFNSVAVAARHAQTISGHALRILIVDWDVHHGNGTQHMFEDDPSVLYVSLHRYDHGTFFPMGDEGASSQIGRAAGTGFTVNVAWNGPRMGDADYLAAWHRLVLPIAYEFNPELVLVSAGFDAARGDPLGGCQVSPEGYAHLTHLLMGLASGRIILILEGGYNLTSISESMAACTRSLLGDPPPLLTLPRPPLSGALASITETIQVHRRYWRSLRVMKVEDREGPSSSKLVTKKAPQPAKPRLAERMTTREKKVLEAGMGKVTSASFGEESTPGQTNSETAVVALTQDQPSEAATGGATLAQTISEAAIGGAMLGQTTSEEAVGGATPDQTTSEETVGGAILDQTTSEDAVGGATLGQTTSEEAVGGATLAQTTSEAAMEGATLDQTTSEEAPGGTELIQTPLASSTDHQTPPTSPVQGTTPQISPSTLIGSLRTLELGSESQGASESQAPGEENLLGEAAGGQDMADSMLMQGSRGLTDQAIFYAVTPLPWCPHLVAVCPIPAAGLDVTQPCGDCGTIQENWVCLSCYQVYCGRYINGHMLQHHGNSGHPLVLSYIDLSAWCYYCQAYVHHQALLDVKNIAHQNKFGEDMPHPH

[2] = target: Histone deacetylase 9 (Homo sapiens, UniProt Q9UKV0); assay: Inhibition of human recombinant HDAC9 using Boc-Lys(tri-fluoroacetyl)-AMC as substrate by fluorescence based analysis
[3] = target: Histone deacetylase 4 (Homo sapiens, UniProt P56524); assay: Inhibition of human recombinant HDAC4 using Boc-Lys(tri-fluoroacetyl)-AMC as substrate by fluorescence based analysis
[4] = target: T1, Protein deacetylase HDAC6; assay: Inhibition of N-terminal GST-tagged human recombinant HDAC6 expressed in Spodoptera frugiperda incubated for 60 mins by fluorescence based analysis
[5] = system: Rattus norvegicus; assay: Antiarthritic activity against adjuvant-induced arthritis Lewis rat model assessed as improvement in arthritis symptoms at 50 mg/kg, po measured after 8 days in presence of methotrexate; format: functional; conditions: time 8 day
[6] = target: T2, Protein deacetylase HDAC6 (Homo sapiens) (UniProt Q9UBN7); assay: Inhibition of HDAC6 in human HH cells assessed as induction of acetylated H4 accumulation upto 10 uM by Western blot analysis; format: cell-based
T2 sequence (whole entry): T1 sequence (Q9UBN7 whole entry)

[7] = AUClast in monkey at 0.5 mg/kg, iv; format: ADME, organism-based, Macaca mulatta; conditions: rhesus monkey, in vivo
[8] = Half life in monkey at 10 mg/kg, po; format: ADME, organism-based, Macaca mulatta; conditions: rhesus monkey, in vivo
[9] = AUC (0 to infinity) in monkey at 10 mg/kg, po; format: ADME, organism-based, Macaca mulatta; conditions: rhesus monkey, in vivo
[10] = Half life in dog at 0.5 mg/kg, iv; format: ADME, organism-based, Canis lupus familiaris; conditions: in vivo
[11] = system: THP-1; assay: Inhibition of TNF-alpha secretion in LPS-stimulated human THP-1 cells pretreated with compound for 24 hrs followed by LPS-induction and measured after 4 hrs by ELISA analysis; format: functional, cell-based; conditions: dose 0.3-10 µM
[12] = AUC (0 to infinity) in mouse at 50 mg/kg, po; format: ADME, organism-based; conditions: in vivo
[13] = C0 in mouse at 10 mg/kg, iv; format: ADME, organism-based; conditions: in vivo
[14] = Tmax in dog at 5 mg/kg, po; format: ADME, organism-based, Canis lupus familiaris; conditions: in vivo
[15] = system: Rattus norvegicus; assay: Antiarthritic activity against adjuvant-induced arthritis Lewis rat model at 50 mg/kg, po measured after 8 days; format: functional, organism-based; conditions: time 8.0 day
[16] = Bioavailability in mouse at 10 mg/kg, iv; format: ADME, organism-based; conditions: in vivo
[17] = Half life in mouse at 10 mg/kg, iv; format: ADME, organism-based; conditions: in vivo
[18] = C0 in dog at 0.5 mg/kg, iv; format: ADME, organism-based, Canis lupus familiaris; conditions: in vivo
[19] = Half life in mouse at 50 mg/kg, po; format: ADME, organism-based; conditions: in vivo
[20] = system: Mus musculus; assay: Antiarthritic activity against collagen-induced arthritis DBA1J mouse model at 15 to 30 mg/kg, sc measured after 21 days; format: functional, organism-based; conditions: dose lower […], dose upper 30.0 mg/kg, time 21.0 day
[21] = AUC (0 to infinity) in dog at 0.5 mg/kg, iv; format: ADME, organism-based, Canis lupus familiaris; conditions: in vivo
[22] = Bioavailability in monkey at 0.5 mg/kg, iv; format: ADME, organism-based, Macaca mulatta; conditions: rhesus monkey, in vivo
[23] = Clearance in dog at 0.5 mg/kg, iv; format: ADME, organism-based, Canis lupus familiaris; conditions: in vivo
[24] = system: Rattus norvegicus; assay: Antiarthritic activity against adjuvant-induced arthritis Lewis rat model assessed as improvement in arthritis symptoms at 50 mg/kg, po measured after 8 days; format: functional; conditions: time 8 day
[25] = Tmax in mouse at 50 mg/kg, po; format: ADME, organism-based; conditions: in vivo
[26] = AUClast in dog at 5 mg/kg, po; format: ADME, organism-based, Canis lupus familiaris; conditions: in vivo
[27] = system: Mus musculus; assay: Antiarthritic activity against collagen-induced arthritis DBA1J mouse model assessed as improvement in arthritis symptoms at 15 mg/kg, sc measured after 21 days; format: functional; conditions: time 21 day
[28] = AUC (0 to infinity) in dog at 5 mg/kg, po; format: ADME, organism-based, Canis lupus familiaris; conditions: in vivo
[29] = AUClast in mouse at 10 mg/kg, iv; format: ADME, organism-based; conditions: in vivo
[30] = Half life in dog at 5 mg/kg, po; format: ADME, organism-based, Canis lupus familiaris; conditions: in vivo
[31] = Cmax in dog at 5 mg/kg, po; format: ADME, organism-based, Canis lupus familiaris; conditions: in vivo
[32] = AUC (0 to infinity) in mouse at 10 mg/kg, iv; format: ADME, organism-based; conditions: in vivo
[33] = AUClast in monkey at 10 mg/kg, po; format: ADME, organism-based, Macaca mulatta; conditions: rhesus monkey, in vivo
[34] = target: T2, Protein deacetylase HDAC6 (Homo sapiens); assay: Inhibition of HDAC6 in human HH cells assessed as induction of acetylated tubulin accumulation at 0.3 uM by Western blot analysis; format: cell-based
[35] = target: T2, Protein deacetylase HDAC6 (Homo sapiens); assay: Inhibition of HDAC6 in human HH cells assessed as induction of acetylated H3 accumulation upto 10 uM by Western blot analysis; format: cell-based
[36] = AUClast in dog at 0.5 mg/kg, iv; format: ADME, organism-based, Canis lupus familiaris; conditions: in vivo

Sequence of Histone deacetylase 4 (P56524 whole entry): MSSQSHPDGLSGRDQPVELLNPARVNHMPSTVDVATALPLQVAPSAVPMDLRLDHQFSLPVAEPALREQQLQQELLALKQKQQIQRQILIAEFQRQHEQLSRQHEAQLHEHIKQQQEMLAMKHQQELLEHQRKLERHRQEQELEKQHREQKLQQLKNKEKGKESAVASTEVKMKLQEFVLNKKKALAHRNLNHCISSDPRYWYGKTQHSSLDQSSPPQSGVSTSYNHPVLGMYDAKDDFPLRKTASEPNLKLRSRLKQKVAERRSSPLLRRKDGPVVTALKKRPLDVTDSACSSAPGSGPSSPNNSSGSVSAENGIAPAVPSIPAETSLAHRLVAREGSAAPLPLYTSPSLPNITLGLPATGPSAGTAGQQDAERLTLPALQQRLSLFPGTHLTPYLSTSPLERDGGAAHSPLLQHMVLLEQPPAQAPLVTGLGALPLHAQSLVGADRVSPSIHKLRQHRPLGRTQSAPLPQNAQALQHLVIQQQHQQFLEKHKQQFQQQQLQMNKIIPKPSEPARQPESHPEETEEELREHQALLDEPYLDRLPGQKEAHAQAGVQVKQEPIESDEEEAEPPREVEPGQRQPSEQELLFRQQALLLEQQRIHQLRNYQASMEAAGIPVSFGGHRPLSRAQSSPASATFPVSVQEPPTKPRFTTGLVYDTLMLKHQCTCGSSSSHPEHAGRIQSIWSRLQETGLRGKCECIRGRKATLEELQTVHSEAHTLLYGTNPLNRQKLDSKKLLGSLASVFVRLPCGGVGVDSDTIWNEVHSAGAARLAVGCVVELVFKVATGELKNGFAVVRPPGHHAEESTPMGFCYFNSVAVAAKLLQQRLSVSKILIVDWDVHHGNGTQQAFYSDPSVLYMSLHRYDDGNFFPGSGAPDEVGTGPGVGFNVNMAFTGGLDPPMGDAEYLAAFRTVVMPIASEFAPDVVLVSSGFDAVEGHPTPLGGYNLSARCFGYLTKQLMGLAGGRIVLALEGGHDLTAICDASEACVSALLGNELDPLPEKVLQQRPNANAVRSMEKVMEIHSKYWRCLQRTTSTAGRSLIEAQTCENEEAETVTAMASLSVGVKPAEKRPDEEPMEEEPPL
Sequence of Histone deacetylase 9 (Q9UKV0 whole entry): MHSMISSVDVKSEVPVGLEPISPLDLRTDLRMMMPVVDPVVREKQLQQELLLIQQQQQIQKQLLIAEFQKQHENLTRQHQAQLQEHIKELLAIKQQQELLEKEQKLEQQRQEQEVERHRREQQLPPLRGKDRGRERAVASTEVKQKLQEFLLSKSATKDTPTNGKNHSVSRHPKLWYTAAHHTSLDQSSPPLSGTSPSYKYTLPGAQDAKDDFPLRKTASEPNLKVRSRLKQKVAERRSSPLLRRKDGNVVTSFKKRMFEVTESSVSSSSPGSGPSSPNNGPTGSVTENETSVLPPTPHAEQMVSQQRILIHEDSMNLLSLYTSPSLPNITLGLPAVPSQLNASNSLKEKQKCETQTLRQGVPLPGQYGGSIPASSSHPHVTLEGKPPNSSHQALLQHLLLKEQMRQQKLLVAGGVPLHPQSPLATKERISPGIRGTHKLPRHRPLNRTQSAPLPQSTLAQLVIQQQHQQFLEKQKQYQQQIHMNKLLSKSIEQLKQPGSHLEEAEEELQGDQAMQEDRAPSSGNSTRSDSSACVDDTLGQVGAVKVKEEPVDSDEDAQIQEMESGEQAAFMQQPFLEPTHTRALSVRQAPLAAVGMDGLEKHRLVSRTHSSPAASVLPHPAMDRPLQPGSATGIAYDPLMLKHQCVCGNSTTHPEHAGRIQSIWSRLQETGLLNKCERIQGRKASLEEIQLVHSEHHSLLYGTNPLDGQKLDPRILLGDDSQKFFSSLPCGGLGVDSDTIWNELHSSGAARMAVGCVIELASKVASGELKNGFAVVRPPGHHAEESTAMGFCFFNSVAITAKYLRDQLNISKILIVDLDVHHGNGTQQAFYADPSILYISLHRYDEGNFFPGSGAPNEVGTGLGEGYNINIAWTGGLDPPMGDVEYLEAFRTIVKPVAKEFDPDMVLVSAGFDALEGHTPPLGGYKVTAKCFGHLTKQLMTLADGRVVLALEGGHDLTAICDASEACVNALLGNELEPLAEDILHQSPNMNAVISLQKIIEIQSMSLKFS

SMILES: O=C(NO)c1ccc(Cn2c3c(c4ccccc42)C(=O)CCC3)cc1
IC50 [1]: 35 nM
IC50 [2]: > 20000 nM
IC50 [3]: > 20000 nM
IC50 [4]: 16 nM

inhibition [6]: inactive
AUC(0-t) [7]: 299 ng·h/mL
half-life [8]: 57 min
AUC(0-inf) [9]: 339 ng·h/mL
half-life [10]: 36 min
AUC(0-inf) [12]: 1150 ng·h/mL
C0 [13]: 4290 ng/mL
Tmax [14]: 24 min
bioavailability [16]: 19%
half-life [17]: 17.4 min
C0 [18]: 2080 ng/mL
half-life [19]: 83.4 min
AUC(0-inf) [21]: 458 ng·h/mL
bioavailability [22]: 11.2%
clearance [23]: 18.8 mL/min/kg
Tmax [25]: 4.98 min
AUC(0-t) [26]: 1090 ng·h/mL
AUC(0-inf) [28]: 1150 ng·h/mL
AUC(0-t) [29]: 1200 ng·h/mL
half-life [30]: 84 min
Cmax [31]: 1030 ng/mL
AUC(0-inf) [32]: 1210 ng·h/mL
AUC(0-t) [33]: 332 ng·h/mL
inhibition [34]: Active
inhibition [35]: inactive
AUC(0-t) [36]: 446 ng·h/mL
SMILES: CC1(C)CC(=O)c2c(C(F)(F)F)nn(Cc3ccc(C(=O)NO)cc3)c2C1
Activity [5]: 97.9%
inhibition [11]: Dose-Dependent Effect
Activity [15]: Active
Activity [20]: Active
Activity [24]: 59.6%
Activity [27]: 53%
